One experiment concerns Ebola virus. As to conditions: read-out: IC50 virus entry; cited from earlier work.
Another experiment has as its system lysosomal TPC2. The settings on record: cited from earlier work.
Experiment [1] deals with T1, human TPC2 L11A/L12A (TPC2^PM) (Homo sapiens, UniProt Q8NHX9, L11A/L12A).
T1 construct: FLAG (C); V5 (C); expressed in transfected cells; host or cells: HEK293
Briefly: Inside-out patch-clamp of PI(3,5)P2-induced TPC2^PM Na+ currents (WT pore). In kind it is cell-based. The settings on record: for current, trace of PI103 on WT TPC2 channel: voltage -1.20E+02, successive trace points. The procedure:
(§1) After 24 h of transfection, human TPC1^PM or TPC2^PM channel currents were acquired at room temperature using an EPC-10 amplifier and PatchMaster software (HEKA) or a MultiClamp 700B amplifier and pCLAMP software (Axon Instruments). […] Patch pipettes were polished with a resistance of 2–3 MΩ for recording. Similarly, for whole-cell recording to allow inhibitor application on the extracellular side, the K^+-based solution was used as the pipette solution, and the Na^+-based solution was used in the bath.
Dose curves were fitted by the Hill logistic equation. τon and τoff were acquired from singe exponential fitting.
On the technique in general: The patch-clamp technique gives a direct electrical read-out from membranes.

Experiment [2] addresses T2, human TPC2^PM Y312A mutant (Homo sapiens, UniProt Q8NHX9, L11A/L12A/Y312A).
T2 construct: FLAG (C); V5 (C); expressed in transfected cells; host or cells: HEK293
Nature of the experiment: Inside-out patch-clamp, PI(3,5)P2-activated TPC2^PM Y312A. The experiment is classed as cell-based. As to conditions: for current, trace of PI103 on Y312A of TPC2 channel: successive trace points. The procedure: as §1

In experiment [3] the target is T3, human TPC2^PM H699A mutant (Homo sapiens, UniProt Q8NHX9, H699A/L11A/L12A).
T3 construct: FLAG (C); V5 (C); expressed in transfected cells; host or cells: HEK293
T3 sequence (Q8NHX9 whole entry L11A/L12A/H699A): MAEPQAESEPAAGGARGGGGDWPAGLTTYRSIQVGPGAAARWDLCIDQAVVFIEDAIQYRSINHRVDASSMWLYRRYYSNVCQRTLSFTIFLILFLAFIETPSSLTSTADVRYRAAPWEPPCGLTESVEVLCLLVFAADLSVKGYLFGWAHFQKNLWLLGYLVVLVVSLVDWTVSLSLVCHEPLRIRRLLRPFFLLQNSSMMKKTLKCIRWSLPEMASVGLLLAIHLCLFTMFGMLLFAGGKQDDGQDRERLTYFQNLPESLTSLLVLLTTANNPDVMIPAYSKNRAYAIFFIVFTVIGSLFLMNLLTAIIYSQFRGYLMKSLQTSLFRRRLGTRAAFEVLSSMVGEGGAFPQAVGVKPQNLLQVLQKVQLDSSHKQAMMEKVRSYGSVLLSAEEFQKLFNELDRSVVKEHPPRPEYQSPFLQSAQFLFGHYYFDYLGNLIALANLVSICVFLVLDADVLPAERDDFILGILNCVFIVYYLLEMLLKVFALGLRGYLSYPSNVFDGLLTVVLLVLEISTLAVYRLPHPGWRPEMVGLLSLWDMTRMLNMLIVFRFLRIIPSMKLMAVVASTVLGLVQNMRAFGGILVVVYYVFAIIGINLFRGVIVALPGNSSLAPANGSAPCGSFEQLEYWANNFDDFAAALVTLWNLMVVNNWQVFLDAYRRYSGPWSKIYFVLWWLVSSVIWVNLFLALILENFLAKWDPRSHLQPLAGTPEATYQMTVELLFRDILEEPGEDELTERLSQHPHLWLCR
Briefly: Inside-out patch-clamp, PI(3,5)P2-activated TPC2^PM H699A. The experiment is classed as cell-based. As to conditions: for current, trace of PI103 on H699A of TPC2 channel: voltage -1.20E+02, successive trace points. The procedure:
as §1

The target in experiment [4] is T4, human TPC2^PM Y312A/H699A mutant (Homo sapiens, UniProt Q8NHX9, H699A/L11A/L12A/Y312A).
T4 construct: FLAG (C); V5 (C); expressed in transfected cells; host or cells: HEK293
T4 sequence (Q8NHX9 whole entry L11A/L12A/Y312A/H699A): as the sequence (Q8NHX9 whole entry L11A/L12A/H699A) above, with Y312A counted along it
Nature of the experiment: Inside-out patch-clamp, PI(3,5)P2-activated TPC2^PM Y312A/H699A. The experiment is classed as cell-based. The settings on record: 0.3 μM PI(3,5)P2 alone, trace, voltage -1.20E+02. The procedure:
as §1

In a further experiment the test system is TPCs. As to conditions: read-out: IC50 inhibition of TPCs; cited from earlier work.
The target of experiment [5] is T1, human TPC2 L11A/L12A (TPC2^PM). Briefly: Whole cell patch-clamp of NAADP (microinjection)-induced TPC2^PM currents in HEK293 cells. In kind it is cell-based. On the set-up: averaged NAADP-induced whole cell current trace: unit not given here. The procedure: Whole cell patch-clamp recording of the NAADP (microinjection)-induced TPC2^PM currents was performed as we reported. […] The cells were visualized under an infrared differential interference contrast optics microscope (Zeiss). Currents were recorded by voltage ramps from −120 to +120 mV over 400 ms for every 2 s with a holding potential of 0 mV. After a whole cell recording configuration was achieved, an injection pipette was inserted into the cell and the baseline of the whole cell current was recorded. Microinjection of NAADP was performed as above in imaging analysis of NAADP-evoked Ca^2+ release. The NAADP-induced currents were obtained by subtraction of the baseline from NAADP injection-induced currents.

The next experiment concerns the target T5, human TPC2 (Homo sapiens, UniProt Q8NHX9).
T5 construct: FLAG (C); V5 (C); expressed in transfected cells; host or cells: HEK293
Nature of the experiment: Imaging of NAADP-evoked Ca2+ elevation (GCaMP6f) after microinjection in TPC2-expressing HEK293 cells. The experiment is classed as cell-based. The procedure:
Ca^2+ imaging analysis of NAADP-evoked Ca^2+ elevation was performed as we recently described. Briefly, cells were co-transfected with cDNA constructs of human TPC2 and the Ca^2+ reporter GCaMP6f, and the transfected cells were identified by GCaMP6f fluorescence. Fluorescence was monitored with an Axio Observer A1 microscope equipped with an AxioCam MRm digital camera and ZEN Blue 2 software containing a physiology module (Carl Zeiss) at a sampling frequency of 2 Hz. Cell injection was performed with a FemtoJet microinjector (Eppendorf). The pipette solution contained 110 mM KCl, 10 mM NaCl, and 20 mM Hepes (pH 7.2) supplemented with Dextran (10,000 MW)-Texas Red (0.3 mg/ml) and NAADP (100 nM) or vehicle. When needed, 10 µM YM201626 or apilimod at was added to the pipette solution. […] To minimize interference by contaminated Ca^2+, the pipette solution was always treated with Chelex 100 resin (#C709, Sigma-Aldrich) immediately before use. Microinjection (0.5 s at 150 hPa) was made ~30 s after pipette tip insertion into cells. […] Successful injection was verified by fluorescence of the co-injected Texas Red. Elevation in intracellular Ca^2+ concentration was reported by a change in fluorescence intensity measured as ΔF/F0, calculated from NAADP microinjection-induced maximal changes in fluorescence (ΔF at the peak) divided by the fluorescence immediately before microinjection (F0).

Molecules are shown by their SMILES. Several values for one entry are separate records, joined by “and”; a condition that tells them apart may be missing. Equal values may be shown once. Read-outs that look alike come from different tables or passages of the source.

T2 sequence (Q8NHX9 whole entry L11A/L12A/Y312A): as the sequence (Q8NHX9 whole entry L11A/L12A/H699A) above, with Y312A, A699H counted along it
T5 sequence (Q8NHX9 whole entry): as the sequence (Q8NHX9 whole entry L11A/L12A/H699A) above, with A11L, A12L, A699H counted along it
T1 sequence (Q8NHX9 whole entry L11A/L12A): as the sequence (Q8NHX9 whole entry L11A/L12A/H699A) above, with A699H counted along it

Take `COc1ccc2cc1Oc1ccc(cc1)C[C@H]1c3cc(c(OC)cc3CCN1C)Oc1c(OC)c(OC)cc3c1[C@H](C2)N(C)CC3` [tetrandrine]: in the experiment with Ebola virus, the IC50 is 0.055 µM. The “inhibition of (lysosomal) TPC2 currents” value in the experiment with lysosomal TPC2 (0.5 µM) was 60%; in the experiment with lysosomal TPC2 (10 µM), 54% and 50–60%.
With `Oc1cccc(-c2nc(N3CCOCC3)c3oc4ncccc4c3n2)c1` [PI-103], the “fold higher IC50 than that of YM201636” value in experiment [1] (WT TPC2^PM) was 4 fold. Moreover, the values for the half-maximal inhibitory concentration (IC50) in experiment [1] (read-out: IC50 for inhibition of PI(3,5)P2-induced human TPC2 channel Na+ currents) and in [2] were 0.64 µM and 13.9 µM, respectively. For the same compound, the “channel's blockade in H699A mutant” value in [3] (0.3 μM PI(3,5)P2, inside-out) is “largely abolished”.
With `CCCCCCCC(=O)OC[C@H](COP(=O)(O)OC1[C@H](O)[C@H](OP(=O)(O)O)C(O)[C@H](OP(=O)(O)O)[C@H]1O)OC(=O)CCCCCCC` (some centres unmarked) [PI(3,5)P2, phosphatidylinositol 3,5-bisphosphate], the “deactivation rate τoff on wash-off” value in experiment [1] (1.0 μM PI(3,5)P2, n = 7) stood at 20.8 ± 0.9 s. For the same compound, the “activation rate τon of human TPC2 channels” value in [1] (1.0 μM PI(3,5)P2 from cytosolic side, n = 8) is reported as 9.0 ± 0.5 s. The “kinetics (Tau) of TPC2PM currents, mean value” in experiment [1] (PI(3,5)P2 wash on) is on record as 9.035. Besides, in experiment [1] (individual cells 1-5, Fig 3D), the “Tau of TPC2PM currents, PI(3,5)P2 wash on after Y201636, single cells” value was 48.718 and 63.746 and 69.896 and 56.91 and 53.316. For the same compound, in [1] (individual cells 1-7, Fig 3D), the “Tau of TPC2PM currents, PI(3,5)P2 wash off, single cells” value is 21.372 and 18.6234 and 21.6704 and 18.1982 and 20.854 and 19.4692 and 25.31. Further, in experiment [1] (individual cells 1-8, Fig 3D), the “Tau of TPC2PM currents, PI(3,5)P2 wash on, single cells” value was 8.4824 and 9.9858 and 7.6828 and 7.7804 and 8.8206 and 10.9364 and 11.3272 and 7.265. Further, the “Averaged kinetics (Tau) of TPC2PM currents, PI(3,5)P2 wash on after YM201636, mean value” in [1] (mean, 5 cells, Fig 3D) amounted to 11.9903. Also, in [1] (mean, 7 cells, Fig 3D), the “Averaged kinetics (Tau) of TPC2PM currents, PI(3,5)P2 wash off, mean value” is given as 20.7853. Further, in experiment [1] (mean, 8 cells, Fig 3D), the “Averaged kinetics (Tau) of TPC2PM currents, PI(3,5)P2 wash on, mean value” came out at 9.035. The “current(A)” value in experiment [2] (Y312A TPC2, 0.3 μM PI(3,5)P2 alone, trace, voltage -1.20E+02) was -2.83E-09 A; in [4] it was -4.54E-09 A.
On to `O=C1C[C@@H](c2ccc(O)cc2)Oc2cc(O)cc(O)c21` [Naringenin], for which the IC50 in the experiment with TPCs is about 200 µM.
As to `Cc1cccc(/C=N/Nc2cc(N3CCOCC3)nc(OCCc3ccccn3)n2)c1` [apilimod], the “inhibition of the NAADP-induced TPC2^PM currents” value in [5] (1 µM in bath solution ~10 min, whole cell, −120 mV) is listed as “little effect”. Besides, the “averaged NAADP-induced whole cell current trace” value is -0.4148 in experiment [5] (1 uM, Voltage -119.76); -0.4172 in experiment [5] (1 uM, Voltage -119.82); -0.4198 in experiment [5] (1 uM, Voltage -119.88); -0.4267 in experiment [5] (1 uM, Voltage -119.94); -0.4289 in experiment [5] (1 uM, Voltage -120, Fig 1C source data). The “I, current density of NAADP-induced whole cell TPC2^PM currents, individual cells” value in experiment [5] (1 uM, −120 mV, Fig 1D source data) is 94.6904 pA/pF and 47.5492 pA/pF and 12.9726 pA/pF and 46.7536 pA/pF and 31.7662 pA/pF and 23.2025 pA/pF. Besides, the “reduction of the NAADP-evoked Ca2+ elevation” value on human TPC2 (1 µM microinjected together with NAADP (100 nM), HEK293 cells) is given as “largely unaffected”. In addition, the “NAADP-evoked calcium elevation (change in Ca2+ indicator fluorescence), individual cells” value on human TPC2 (Fig 1B source data, 1 µM microinjected with NAADP) was 2.593 and 3.9665 and 6.13 and 1.0864 and 2.248 and 3.0742.
Take `Oc1cccc(-c2nc(N3CCOCC3)c3oc4ncccc4c3n2)c1` [PI103]: the “current, trace of PI103 on WT TPC2 channel” value is listed as -1.97E-09 A in experiment [1] (0.3 μM PI(3,5)P2 + 0.2 μM PI103) and -1.21E-09 A in experiment [1] (0.3 μM PI(3,5)P2 + 0.5 μM PI103). The “current, trace of PI103 on Y312A of TPC2 channel” value in experiment [2] (0.3 μM PI(3,5)P2 + 2.0 μM PI103, voltage -1.20E+02) is reported as -3.13E-09 A; in experiment [2] (0.3 μM PI(3,5)P2 + 5.0 μM PI103, voltage -1.20E+02), -1.87E-09 A; in experiment [2] (0.3 μM PI(3,5)P2 + 20.0 μM PI103, voltage -1.20E+02) it was -1.61E-09 A. Besides, the “current, trace of PI103 on H699A of TPC2 channel” value in experiment [3] (0.3 μM PI(3,5)P2 + 0.4 μM PI103) is reported as -4.01E-09 A; in experiment [3] (0.3 μM PI(3,5)P2 + 20.0 μM PI103), -3.66E-09 A; in experiment [3] (0.3 μM PI(3,5)P2 + 50.0 μM PI103), -3.37E-09 A.
As to `COc1ccc([C@H]2N[C@H](C(=O)O)Cc3c2[nH]c2ccccc32)cc1CN1CCN(c2ccccc2F)CC1` [Ned-19], the “inhibition of lysosomal TPC2 activity” value with lysosomal TPC2 (200 µM) was ~ 75%.
Consider `COc1cc2c(cc1Oc1ccccc1)C(Cc1ccc(Oc3ccccc3)cc1)N(C)CC2` (centres unmarked) [SG-094], for which the “inhibition of (lysosomal) TPC2 currents” value in the experiment with lysosomal TPC2 (10 µM) is given as ~ 75%.

By IC50 is commonly meant the concentration that inhibits the measured activity by half.
